Assay results: patent US7695931B2, “Carotenoid hydroxylase gene, method for preparing hydroxylated carotenoid, and novel geranylgeranyl pyrophosphate synthase” (Kirin Holdings Kabushiki Kaisha, priority 2003, dated 2010)

Columns and labels:
[1] = tested on: lipid peroxidation in rat brain homogenate; assay: in vitro anti-peroxidation activity: lipid peroxidation in rat brain homogenate (TBA, A532); format: biochemical; conditions: for IC50: concentration halving A532 vs non-addition group, ascorbic acid 100 μM, pH 7.4, 37° C., 1 hr, read-out: IC50 (μM), inhibitory effect on lipid peroxidation in rat brain homogenate; for inhibitory effect on lipid peroxidation (in words): rat brain homogenate, in vitro
Description: Although various carotenoids have a wide variety of physiological activities and effects, it is believed that activity to inhibit peroxidation of lipids in the living body caused by oxygen radicals is the basis for all activities/effects. Therefore, in vitro inhibitory effects of the two carotenoids synthesized in Example 14 on lipid peroxidation caused by free radicals were examined using rat brain homogenate. This assay was conducted basically according to the method of Kubo et al. (Kubo, K., Yoshitake, Y., Kumada, K., Shuto K., Nakamizo, N. “Radical scavenging action of flunarizine in rat brain in vitro”. Arch. Int. Pharmacodyn. Ther. 272, 283-295, 1984). Briefly, 0.05 ml of methanol solution of a test sample, 0.1 ml of 1 mM ascorbic acid (final concentration 100 μM) and 0.05 ml of H2O were added to 0.6 ml of 100 mM phosphate buffer (pH 7.4) and pre-incubated at 37° C. for 5 min. Then, 0.2 ml of 2.5% (w/v) rat brain homogenate was added thereto to start reaction, followed by incubation at 37° C. for 1 hr under shaking. One milliliter of a mixed solution containing 20% (w/v) trichloroacetic acid, 0.5% (w/v) 2-thiobarbituric acid and 0.2 N HCl was added to the above reaction solution to terminate the reaction. The resultant solution was boiled at 100 ° C. for 30 min for color development. After cooling, the solution was centrifuged at 3000 rpm for 5 min. Absorbance at 532 nm (A532) of the resultant supernatant was measured. The concentration of test sample which is required to decrease the A532 of test sample addition group to one half of the A532 of test sample non-addition group was calculated as IC50. This value was taken as lipid peroxidation inhibitory effect in rat brain homogenate.

lung cancer = conditions: cited from earlier work; for incidence of lung cancer: carotenoid-administered mice, incidence in control mice without carotenoid administration taken as 100%
liver cancer = conditions: carotenoid-administered mice; incidence in control mice without carotenoid administration taken as 100%; cited from earlier work
skin cancer = conditions: carotenoid-administered mice; incidence in control mice without carotenoid administration taken as 100%; cited from earlier work
[2] = compared with β-carotene; cited from earlier work

Row | Compound | IC50 [1] | incidence of lung cancer (lung cancer) | incidence of liver cancer (liver cancer) | incidence of skin cancer (skin cancer) | other results
1 | CC1=C(/C=C/C(C)=C/C=C/C(C)=C/C=C/C=C(C)/C=C/C=C(C)/C=C/C2=C(C)C(=O)CC(O)C2(C)C)C(C)(C)C(O)CC1=O (single isomer, unassigned) [2,2′-Dihydroxycanthaxanthin, 2,2′-dihydroxy-β,β-carotene-4,4′-dione] | 4.8 µM | – | – | – | inhibitory effect on lipid peroxidation (in words) [1]: strong inhibitory effects on lipid peroxidation
2 | CC1=C(/C=C/C(C)=C/C=C/C(C)=C/C=C/C=C(C)/C=C/C=C(C)/C=C/C2=C(C)C(=O)CC(O)C2(C)C)C(C)(C)CCC1=O (single isomer, unassigned) [2-Hydroxycanthaxanthin, 2-hydroxy-β,β-carotene-4,4′-dione] | 8.1 µM | – | – | – | inhibitory effect on lipid peroxidation (in words) [1]: strong inhibitory effects on lipid peroxidation
3 | CC1=C(/C=C/C(C)=C/C=C/C(C)=C/C=C/C=C(C)/C=C/C=C(C)/C=C/C2=C(C)C(=O)CCC2(C)C)C(C)(C)CCC1=O [Canthaxanthin] | 50 µM | – | – | – | –
4 | CC1=C(/C=C/C(C)=C/C=C/C(C)=C/C=C/C=C(C)/C=C/C=C(C)/C=C/C2=C(C)C(=O)[C@@H](O)CC2(C)C)C(C)(C)C[C@H](O)C1=O [astaxanthin] | – | 70% | 30% | 100% | –
5 | CC1=C[C@H](O)CC(C)(C)[C@H]1/C=C/C(C)=C/C=C/C(C)=C/C=C/C=C(C)/C=C/C=C(C)/C=C/C1=C(C)C[C@@H](O)CC1(C)C [lutein] | – | 70% | 50% | – | –
6 | CC(C)=CCC/C(C)=C/C=C/C(C)=C/C=C/C(C)=C/C=C/C=C(C)/C=C/C=C(C)/C=C/C=C(\C)CCC=C(C)C [lycopene] | – | – | 100% | 10% | inhibition of lung cancer (in words) (lung cancer; comparison of the three carcinogenesis models): highly effective in inhibiting lung cancer
7 | CC1=CCCC(C)(C)C1/C=C/C(C)=C/C=C/C(C)=C/C=C/C=C(C)/C=C/C=C(C)/C=C/C1=C(C)CCCC1(C)C (stereo not drawn) [α-carotene] | – | 40% | 50% | – | –
8 | CC1=C(/C=C/C(C)=C/C=C/C(C)=C/C=C/C=C(C)/C=C/C=C(C)/C=C/C2=C(C)CCCC2(C)C)C(C)(C)CCC1 [β-Carotene, β-carotene] | > 100 µM | 139% | 70% | – | –
9 | CC1=C(/C=C/C(C)=C/C=C/C(C)=C/C=C/C=C(C)/C=C/C=C(C)/C=C/C2=C(C)C[C@@H](O)CC2(C)C)C(C)(C)CCC1 [β-cryptoxanthin] | – | – | – | – | intake ratio into the living body relative to β-carotene [2]: 10 times
10 | fucoxanthin | – | – | 30% | 10% | –
